pEC50, pKd, pKi: −log10 of the molar value. Like-named read-outs stand apart in the source and are kept apart here.
Experiments:
[1] = target: T1, human 5-hydroxytryptamine-2C (h5-HT2C) receptor (Homo sapiens, UniProt P28335); experiment: [125I]DOI binding to membranes of CHO cells expressing the h5-HT2C receptor
T1 construct: expressed in transfected cells; host or cells: CHO (Chinese Hamster Ovary) cells; membrane preparation
T1 sequence (P28335 33-458): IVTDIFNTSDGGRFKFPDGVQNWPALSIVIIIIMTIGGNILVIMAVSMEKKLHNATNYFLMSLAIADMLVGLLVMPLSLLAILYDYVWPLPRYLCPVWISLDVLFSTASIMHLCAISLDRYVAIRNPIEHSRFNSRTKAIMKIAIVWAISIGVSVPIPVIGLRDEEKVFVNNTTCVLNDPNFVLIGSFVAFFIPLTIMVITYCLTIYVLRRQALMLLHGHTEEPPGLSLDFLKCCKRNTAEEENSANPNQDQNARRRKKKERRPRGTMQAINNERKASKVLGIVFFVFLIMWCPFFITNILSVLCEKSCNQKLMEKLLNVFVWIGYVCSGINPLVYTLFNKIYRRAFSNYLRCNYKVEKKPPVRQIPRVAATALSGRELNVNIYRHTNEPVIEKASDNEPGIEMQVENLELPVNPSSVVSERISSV

human 5-HT2C receptor = target: T2, human 5-HT2C receptor (Homo sapiens, UniProt P28335); experiment: calcium mobilization (FLIPR) in CHO cells stably expressing the human 5-HT2C receptor; format: cell-based
T2 sequence (P28335 33-458): T1 sequence (P28335 33-458)

[2] = read-out: 5-HT2C Binding Ki avg

In the case of `NCC1CSc2cc(F)cc(-c3c(Cl)cccc3Cl)c2O1` (stereo not shown) [Example 1, C-[8-(2,6-Dichloro-phenyl)-6-fluoro-2,3-dihydro-benzo[1,4]oxathiin-2-yl]-methylamine], the pKi [1, 2] was 9.27, the Emax (human 5-HT2C receptor; CHO, read-out: 5-HT2C Function EMax (%)) was 70% and the pEC50 (human 5-HT2C receptor; calcium mobilization, CHO cells, FLIPR, read-out: 5-HT2C Function EC50) was 6.45.

In the case of `NCC1C[S+]([O-])c2cc(F)cc(-c3c(Cl)cccc3Cl)c2O1` (stereo not shown) [Example 2, C-[8-(2,6-Dichloro-phenyl)-6-fluoro-4-oxo-3,4-dihydro-2H-4lambda*4*-benzo[1,4]oxathiin-2-yl]-methylamine], the pKi [1, 2] was 6.41.

`NCC1CS(=O)(=O)c2cc(F)cc(-c3c(Cl)cccc3Cl)c2O1` (stereo not shown) [Example 3, C-[8-(2,6-Dichloro-phenyl)-6-fluoro-4,4-dioxo-3,4-dihydro-2H-4lambda*6*-benzo[1,4]oxathiin-2-yl]-methylamine] showed a pKi [1, 2] of 7.93.

Work on `CSc1ccc2c(c1)C(N1CCN(C)CC1)Cc1ccccc1S2` (stereo not shown) [Methiothepin, reference compound] yielded a pKi ([1]; reference compounds, 95% confidence interval in parentheses, [125I]DOI radioligand, CHO cell membranes, read-out: Ki) of 8.34.

In the case of `COc1cc(CC(C)N)c(OC)cc1I` (stereo not shown) [[125I] DOI, reference compound], the pKd ([1]; saturation binding with increasing concentrations of [125I] DOI, read-out: dissociation constant, KD) was 9.40.
